In patent US9650339B2, “Inhibitors of histone demethylases” (Gilead Sciences, Inc., priority 2013, dated 2017):

What was measured:
Type in all cases: biochemical
KDM4C (JMJD2C) = target: T1, KDM4C (JMJD2C) (Homo sapiens, UniProt Q9H3R0); experiment: Histone lysine demethylase AlphaLISA assay, KDM4C; settings: read-out: KDM4C HDME Inhibition IC50
T1 sequence (Q9H3R0 1-349): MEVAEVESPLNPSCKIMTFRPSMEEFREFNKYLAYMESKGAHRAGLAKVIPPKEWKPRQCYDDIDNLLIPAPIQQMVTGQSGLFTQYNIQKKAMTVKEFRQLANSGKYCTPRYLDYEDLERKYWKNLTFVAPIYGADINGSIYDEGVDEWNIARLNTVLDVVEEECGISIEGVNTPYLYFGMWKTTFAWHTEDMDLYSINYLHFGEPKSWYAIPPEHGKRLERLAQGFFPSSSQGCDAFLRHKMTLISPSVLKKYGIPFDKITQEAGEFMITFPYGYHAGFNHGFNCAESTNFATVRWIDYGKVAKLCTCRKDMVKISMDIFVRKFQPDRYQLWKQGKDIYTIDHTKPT
Procedure, shortened: (§1)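 Enzyme 10 min pre-incubation; + compound (3% DMSO soln) 10 min; + biotin-H3 methyl-Lys peptide, 25 μM L-Asc, 10 μM α-KG, RT. Read: AlphaLISA acceptor beads, then streptavidin donor beads, RT, dark.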

KDM7 (PHF8) = target: T2, KDM7 (PHF8) (Homo sapiens, UniProt Q9UPP1); experiment: Histone lysine demethylase AlphaLISA assay, KDM7; settings: read-out: PHF8 HDME Inhibition IC50
T2 construct: KDM7 (PHF8); BRIC; 1-1322; Bac
T2 sequence (Q9UPP1 37-440 limits assumed): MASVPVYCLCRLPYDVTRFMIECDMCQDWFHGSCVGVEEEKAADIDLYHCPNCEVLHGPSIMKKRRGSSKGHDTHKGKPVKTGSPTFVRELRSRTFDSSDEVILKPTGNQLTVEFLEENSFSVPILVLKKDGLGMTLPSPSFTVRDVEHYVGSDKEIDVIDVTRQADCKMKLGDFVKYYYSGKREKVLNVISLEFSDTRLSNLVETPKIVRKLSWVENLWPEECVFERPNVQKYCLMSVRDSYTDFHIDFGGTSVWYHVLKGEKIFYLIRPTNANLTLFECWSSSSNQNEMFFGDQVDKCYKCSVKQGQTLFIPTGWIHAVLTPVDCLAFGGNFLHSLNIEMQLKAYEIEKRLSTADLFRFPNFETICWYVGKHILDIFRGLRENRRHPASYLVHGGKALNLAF
Procedure, shortened: as §1

KDM3A (JMJD1A) = target: T3, KDM3A (JMJD1A) (Homo sapiens, UniProt Q9Y4C1); experiment: Histone lysine demethylase AlphaLISA assay, KDM3A; settings: read-out: KDM3 A HDME Inhibition IC50
T3 construct: 2-end; purchased BPS Bioscience, US; host or cells: Bac (baculovirus system)
T3 sequence (Q9Y4C1 2-1321 limits assumed): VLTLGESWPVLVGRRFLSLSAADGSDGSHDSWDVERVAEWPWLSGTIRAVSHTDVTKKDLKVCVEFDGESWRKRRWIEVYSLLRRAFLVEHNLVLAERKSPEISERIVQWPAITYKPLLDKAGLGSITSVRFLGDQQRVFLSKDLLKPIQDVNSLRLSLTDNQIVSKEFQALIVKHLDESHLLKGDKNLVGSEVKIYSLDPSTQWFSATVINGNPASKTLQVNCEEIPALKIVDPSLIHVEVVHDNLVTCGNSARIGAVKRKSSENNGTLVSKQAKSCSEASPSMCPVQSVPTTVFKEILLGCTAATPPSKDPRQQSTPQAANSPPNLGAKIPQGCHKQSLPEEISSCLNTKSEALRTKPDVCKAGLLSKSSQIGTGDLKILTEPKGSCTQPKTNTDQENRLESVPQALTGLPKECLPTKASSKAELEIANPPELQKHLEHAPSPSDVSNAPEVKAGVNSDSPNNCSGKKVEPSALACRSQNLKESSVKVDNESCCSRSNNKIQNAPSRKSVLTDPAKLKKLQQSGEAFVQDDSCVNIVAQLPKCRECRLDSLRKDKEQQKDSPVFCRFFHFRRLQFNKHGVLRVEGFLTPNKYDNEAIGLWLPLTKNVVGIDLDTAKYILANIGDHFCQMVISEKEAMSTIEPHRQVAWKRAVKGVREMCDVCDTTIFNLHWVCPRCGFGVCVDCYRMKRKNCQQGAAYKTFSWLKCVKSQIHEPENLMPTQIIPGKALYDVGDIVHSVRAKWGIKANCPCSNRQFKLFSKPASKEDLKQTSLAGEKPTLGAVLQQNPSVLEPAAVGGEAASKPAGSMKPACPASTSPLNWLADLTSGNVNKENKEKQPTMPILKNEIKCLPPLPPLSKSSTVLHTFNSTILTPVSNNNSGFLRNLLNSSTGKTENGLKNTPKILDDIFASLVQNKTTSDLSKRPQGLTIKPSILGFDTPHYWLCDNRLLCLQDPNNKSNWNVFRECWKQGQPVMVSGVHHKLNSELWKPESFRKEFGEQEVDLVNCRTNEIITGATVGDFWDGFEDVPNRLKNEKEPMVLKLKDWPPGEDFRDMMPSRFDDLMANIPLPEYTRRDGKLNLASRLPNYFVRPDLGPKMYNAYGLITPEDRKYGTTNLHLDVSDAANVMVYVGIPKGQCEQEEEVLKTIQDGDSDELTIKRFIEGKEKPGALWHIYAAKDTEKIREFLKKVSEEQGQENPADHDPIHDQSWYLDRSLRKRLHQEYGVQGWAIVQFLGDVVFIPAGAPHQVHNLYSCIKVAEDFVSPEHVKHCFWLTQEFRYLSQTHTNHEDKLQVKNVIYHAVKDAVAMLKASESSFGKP
Procedure, shortened: as §1

Structure (SMILES) | IC50 (KDM4C (JMJD2C)) | IC50 (KDM7 (PHF8)) | IC50 (KDM3A (JMJD1A))
CN(C)CCCCNCc1cc(CN)ccn1 [Compound 2, [2-({[4-(dimethylamino)butyl]-amino}methyl)pyridin-4-yl]methanamine] | > 2500 nM | > 2500 nM | > 2500 nM
CN(C)CCNCc1ccnc(CNCCCN(C)Cc2ccccc2)c1 [Compound 18, benzyl[3-({[4-({[2-(dimethylamino)ethyl]-amino}methyl)pyridin-2-yl]methyl}-amino)propyl]-methylamine] | > 2500 nM | > 2500 nM | > 2500 nM
COCCNCc1ccnc(CNCCCN(C)Cc2ccccc2)c1 [Compound 19, benzyl(3-{[(4-{[(2-methoxyethyl)amino]-methyl}pyridin-2-yl)methyl]amino}-propyl)methylamine] | > 2500 nM | > 2500 nM | > 2500 nM
CCN(CCN(C)C)C(=O)CN(Cc1cc(CNC(=O)C(F)(F)F)ccn1)C(=O)C(F)(F)F [Compound 26, N-[(2-{[N-({[2-(dimethylamino)ethyl]-(ethyl)carbamoyl}-methyl)-2,2,2-trifluoroacetamido]-methyl}pyridin-4-yl)methyl]-2,2,2-trifIuoroacetamide] | > 2500 nM | – | –
CCN(CC)CCCCNCc1cc(C2NCCCN2C)ccn1 (centres unmarked) [Compound 68, [4-(diethylamino)butyl]({[4-(1-methyl-1,3-diazinan-2-yl)pyridin-2-yl]methyl})amine] | 250 to 2500 nM | – | –

Continued, values first:

IC50 (KDM4C (JMJD2C)) | IC50 (KDM7 (PHF8)) | IC50 (KDM3A (JMJD1A)) | Structure (SMILES)
250 to 2500 nM | < 250 nM | > 2500 nM | COc1ccccc1CN1CCC(NC(=O)CNCc2cc(CNC3CC3)ccn2)CC1 [Compound 20, 2-[({4-[(cyclopropylamino)-methyl]pyridin-2-yl}methyl)amino]-N-{1-[(2-methoxyphenyl)methyl]-piperidin-4-yl}acetamide]
250 to 2500 nM | 250 to 2500 nM | > 2500 nM | COC(=O)CNCc1cc(/C=N/C2CC2)ccn1 [Compound 59, methyl 2-[({4-[N-cyclopropyl-carboximidoyl]pyridin-2-yl}methyl)amino]-acetate]
250 to 2500 nM | > 2500 nM | > 2500 nM | O=Cc1ccnc(CNCCCCN(Cc2ccccc2)C2CC2)c1 [Compound 109, 2-[({4-[benzyl-(cyclopropyl)amino]-butyl}amino)methyl]-pyridine-4-carbaldehyde]
250 to 2500 nM | > 2500 nM | > 2500 nM | O=Cc1ccnc(CNCC(=O)NC2CCN(Cc3ccccc3)C2)c1 (centres unmarked) [Compound 113, N-(1-benzylpyrrolidin-3-yl)-2-{[(4-formylpyridin-2-yl)methyl]amino}-acetamide]
